{"source": "patent US20170028013A1", "about": "(Teva Pharmaceutical Industries, Ltd., priority 2015, published 2017)", "key": {"[1]": {"conditions": "in vivo; cited from earlier work"}, "[2]": {"experiment": "Laq-Na dose incorporated in a clear GA product at increased amino acid concentration", "assay_type": "physicochemical", "procedure": "To 6.015 g of Solution C additional amounts of Laq-Na were added drop by drop at stirring at RT. The solutions obtained were clear at 2-8° C. and at RT at Laq-Na concentrations 1.28, 1.49, 1.75 mg/mL."}, "multiple sclerosis (MS)": {"system": "multiple sclerosis (MS)", "conditions": "cited from earlier work"}, "[3]": {"experiment": "pH optimum for stability and solubility", "assay_type": "physicochemical", "text": "Developing formulations containing laquinimod and GA is particularly difficult because laquinimod and GA have different pH optimums in terms of stability and solubility and because of undesired effects, mainly gelation or the formation of turbid formulations in the presence of various buffers, solvents and surface active agents."}, "[4]": {"system": "acute experimental autoimmune encephalomyelitis (aEAE) model", "conditions": "in vivo; cited from earlier work"}, "[5]": {"experiment": "Saturated solution of laquinimod acid in 0.1 M PBS", "assay_type": "physicochemical", "conditions": "0.1 M PBS pH 7.4, RT", "procedure": "A saturated solution of laquinimod acid […] was prepared by dissolving of 4.2283 g of Laq-acid in 0.1 M PBS (pH 7.4, 700 mL) for 3.5 h at RT. After decantation of the suspension the clear upper part was filtered through a paper (Whatman) filter. This clear, filtered solution contained about 1.5 mg/mL of laquinimod acid (Solution A)."}}}
{"compound": "CCN(C(=O)c1c(O)c2c(Cl)cccc2n(C)c1=O)c1ccccc1", "note": "[Laquinimod sodium]", "values": [{"measurement": "Oral bioavailability", "setting": "[1]", "result": "high"}, {"measurement": "Laq-Na possible to incorporate", "setting": "[2]; glycine 0.6 mg/mL", "result": "1.05 to 1.07", "unit": "mg/mL"}, {"measurement": "Laq-Na possible to incorporate", "setting": "[2]; glycine 4.2 mg/mL", "result": 1.51, "unit": "mg/mL"}, {"measurement": "Laq-Na possible to incorporate", "setting": "[2]; lysine 1.39 mg/mL", "result": "1.06 to 1.09", "unit": "mg/mL"}, {"measurement": "Laq-Na possible to incorporate", "setting": "[2]; lysine 3.38 mg/mL", "result": 1.88, "unit": "mg/mL"}, {"measurement": "Laq-Na possible to incorporate", "setting": "[2]; proline 0.9 mg/mL", "result": "1.06 to 1.09", "unit": "mg/mL"}, {"measurement": "Laq-Na possible to incorporate", "setting": "[2]; proline 2.45 mg/mL", "result": 1.55, "unit": "mg/mL"}]}
{"compound": "CCN(C(=O)c1c(O)c2c(Cl)cccc2n(C)c1=O)c1ccccc1", "note": "[Laquinimod, N-ethyl-N-phenyl-1,2-dihydro-4-hydroxy-5-chloro-1-methyl-2-oxoquinoline-3-carboxamide]", "values": [{"measurement": "Development of active MRI lesions", "setting": "multiple sclerosis (MS); relapsing MS", "result": "reduce development of active MRI lesions"}, {"measurement": "Solubility and stability versus pH", "setting": "[3]", "result": "more soluble and stable in alkaline media"}, {"measurement": "Efficacy in aEAE model", "setting": "[4]", "result": "effective"}, {"measurement": "Laquinimod acid in the clear filtered saturated solution", "setting": "[5]", "result": "about 1.5 mg/mL"}]}
{"compound": "L-glutamic acid polymer with L-alanine, L-lysine and L-tyrosine, acetate (salt) [Glatiramer acetate]", "values": [{"measurement": "Relapse rates, progression of disability, new MRI lesions", "setting": "multiple sclerosis (MS); daily subcutaneous injections, 20 mg/injection", "result": "reduce relapse rates"}, {"measurement": "Efficacy in treating multiple sclerosis", "setting": "multiple sclerosis (MS); in vivo", "result": "effective"}]}
